Where two headings read alike, the source gives them in different places.
Tests used:
Format in all cases: in vivo
[1] = tested on: barnyardgrass (Echinochloa crus-galli); experiment: Test A pre-/postemergence: barnyardgrass; conditions: for pest or weed control at 125 g/ha / pest or weed control at 500 g/ha: Echinochloa crus-galli, 240 h
Procedure, shortened: (§1)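 Compounds, formulated with surfactant in non-phytotoxic solvent, were applied as a directed soil spray preemergence and as postemergence sprays to 2–10 cm, one- to two-leaf seedlings grown in loam soil blended with sand; visual injury, 0–100, assessed ~10 days post-treatment against untreated controls.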

[2] = tested on: morningglory (Ipomoea spp.); experiment: Test A pre-/postemergence: morningglory; conditions: for pest or weed control at 125 g/ha / pest or weed control at 500 g/ha: Ipomoea, 240 h
Procedure, shortened: as §1

[3] = tested on: velvetleaf (Abutilon theophrasti); experiment: Test A pre-/postemergence: velvetleaf; conditions: for pest or weed control at 125 g/ha / pest or weed control at 500 g/ha: Abutilon theophrasti, 240 h
Procedure, shortened: as §1

[4] = tested on: corn (Zea mays); experiment: Test C pre-/postemergence: corn
From the text: (§2) Seeds of plant species selected from blackgrass (Alopecurus myosuroides), bromegrass, downy (downy bromegrass, Bromus tectorum), foxtail, green (green foxtail, Setaria viridis), ryegrass, Italian (Italian ryegrass, Lolium multiflorum), winter wheat (Triticum aestivum), wild oat (Avena fatua), galium (catchweed bedstraw, Galium aparine), bermudagrass (Cynodon dactylon), surinam grass (Brachiaria decumbens), cocklebur (common cocklebur, Xanthium strumarium), corn (Zea mays), large crabgrass (Digitaria sanguinalis), woolly cupgrass (Eriochloa villosa), foxtail, giant (giant foxtail, Setaria faberii), goosegrass (Eleusine indica), johnsongrass (Sorghum halepense), kochia (Kochia scoparia), lambsquarters (Chenopodium album), morningglory (Ipomoea coccinea), nightshade (eastern black nightshade, Solanum ptycanthum), nutsedge, yellow (yellow nutsedge, Cyperus esculentus), pigweed (Amaranthus retroflexus), ragweed (common ragweed, Ambrosia elation), soybean (Glycine max), common (oilseed) sunflower (Helianthus annuus), Russian thistle (Salsola kali) and velvetleaf (Abutilon theophrasti) were planted into a blend of loam soil and sand and treated preemergence with test chemicals formulated in a non-phytotoxic solvent mixture which included a surfactant.
(§3) At the same time, plants selected from these crop and weed species and also barley (winter barley, Hordeum vulgare), canarygrass (Phalaris minor), chickweed (common chickweed, Stellaria media) windgrass (Apera spica-venti) and deadnettle (henbit deadnettle, Lamium amplexicaule) were planted in pots containing Redi-Earth® planting medium (Scotts Company, 14111 Scottslawn Road, Marysville, Ohio 43041) comprising spaghnum peat moss, vermiculite, wetting agent and starter nutrients and treated with postemergence applications of test chemicals formulated in the same manner. Plants ranged in height from 2 to 18 cm (1- to 4-leaf stage) for postemergence treatments.
(§4) Treated plants and controls were maintained in a greenhouse for 13 to 15 days, after which time all species were compared to controls and visually evaluated. Plant response ratings, summarized in Table C, are based on a scale of 0 to 100 where 0 is no effect and 100 is complete control. A dash (-) response means no test result.

[5] = tested on: large crabgrass (Digitaria sanguinalis); experiment: Test C pre-/postemergence: large crabgrass
From the text: as §2, §3, §4

[6] = tested on: foxtail, giant (giant foxtail, Setaria faberii); experiment: Test C pre-/postemergence: foxtail, giant
From the text: as §2, §3, §4

[7] = tested on: kochia (Kochia scoparia); experiment: Test C pre-/postemergence: kochia
From the text: as §2, §3, §4

[8] = tested on: soybean (Glycine max); experiment: Test C pre-/postemergence: soybean
From the text: as §2, §3, §4

[9] = tested on: chickweed (common chickweed, Stellaria media); experiment: Test C postemergence: chickweed
From the text: as §3, §4

[10] = Postemergence, 125 g ai/ha, 0 to 100 scale, 0 is no effect, 100 is complete control
[11] = Postemergence, 500 g ai/ha, visual rating on 0 to 100 scale (0 no effect, 100 complete control), approximately ten days
[12] = Preemergence, 125 g ai/ha, 0 to 100 scale (0 no effect, 100 complete control)
[13] = Preemergence, 500 g ai/ha, 0 to 100 scale, 0 is no effect, 100 is complete control
[14] = Postemergence, 31 g ai/ha, scale 0 to 100 (0 no effect, 100 complete control)
[15] = Postemergence, 62 g ai/ha, scale 0 to 100 (0 no effect, 100 complete control)
[16] = Postemergence, 125 g ai/ha, scale 0 to 100, 0 no effect, 100 complete control
[17] = Postemergence, 250 g ai/ha, scale 0 to 100
[18] = Preemergence, 31 g ai/ha, scale of 0 to 100, 0 is no effect, 100 is complete control
[19] = Preemergence, 125 g ai/ha, scale 0 to 100, 0 no effect, 100 complete control
[20] = Preemergence, 250 g ai/ha, scale 0 to 100, 0 no effect, 100 complete control
[21] = Preemergence, 62 g ai/ha, scale of 0 to 100, 0 is no effect, 100 is complete control
[22] = post-emergence, Postemergence, 125 g ai/ha, 0 to 100 scale, 0 is no effect, 100 is complete control, read-out: Barnyardgrass plant response rating
[23] = post-emergence, Postemergence, 500 g ai/ha, visual rating on 0 to 100 scale (0 no effect, 100 complete control), approximately ten days, read-out: Barnyardgrass plant response rating
[24] = pre-emergence, Preemergence, 125 g ai/ha, 0 to 100 scale where 0 is no effect and 100 is complete control, read-out: Plant response rating, Barnyardgrass
[25] = pre-emergence, Preemergence, 500 g ai/ha, 0 to 100 scale (0 no effect, 100 complete control), read-out: Plant response rating, Barnyardgrass
[26] = post-emergence, Postemergence, 125 g ai/ha, 0 to 100 scale, 0 is no effect, 100 is complete control, read-out: Morningglory plant response rating
[27] = post-emergence, Postemergence, 500 g ai/ha, visual rating on 0 to 100 scale (0 no effect, 100 complete control), approximately ten days, read-out: Morningglory plant response rating
[28] = pre-emergence, Preemergence, 125 g ai/ha, 0 to 100 scale where 0 is no effect and 100 is complete control, read-out: Plant response rating, Morningglory
[29] = pre-emergence, Preemergence, 500 g ai/ha, 0 to 100 scale (0 no effect, 100 complete control), read-out: Plant response rating, Morningglory
[30] = post-emergence, Postemergence, 125 g ai/ha, 0 to 100 scale, 0 is no effect, 100 is complete control, read-out: Velvetleaf plant response rating
[31] = post-emergence, Postemergence, 500 g ai/ha, visual rating on 0 to 100 scale (0 no effect, 100 complete control), approximately ten days, read-out: Velvetleaf plant response rating
[32] = pre-emergence, Preemergence, 125 g ai/ha, 0 to 100 scale where 0 is no effect and 100 is complete control, read-out: Plant response rating, Velvetleaf
[33] = pre-emergence, Preemergence, 500 g ai/ha, 0 to 100 scale (0 no effect, 100 complete control), read-out: Plant response rating, Velvetleaf

Cc1nn(-c2ccc(C(F)(F)F)cn2)nc1Oc1ccnc(C(F)(F)F)c1 [Compound 23]
Barnyardgrass plant response rating [1, 10]: 70 | Barnyardgrass plant response rating [1, 11]: 90 | Plant response rating, Barnyardgrass [1, 12]: 70 | Plant response rating, Barnyardgrass [1, 13]: 100 | Morningglory plant response rating [2, 10]: 90 | Morningglory plant response rating [2, 11]: 100 | Plant response rating, Morningglory [2, 12]: 80 | Plant response rating, Morningglory [2, 13]: 80 | Velvetleaf plant response rating [3, 10]: 90 | Velvetleaf plant response rating [3, 11]: 100 | Plant response rating, Velvetleaf [3, 12]: 50 | Plant response rating, Velvetleaf [3, 13]: 100 | Plant response rating, Corn [4, 14]: 10 | Plant response rating, Corn [4, 15]: 15 | Plant response rating, Corn [4, 16]: 20 | Plant response rating, Corn [4, 17]: 30 | Plant response rating, Corn [4, 18]: 5 | Plant response rating, Corn ([4]; Preemergence, 62 g ai/ha, scale 0 to 100, 0 no effect, 100 complete control): 30 | Plant response rating, Corn [4, 19]: 70 | Plant response rating, Corn [4, 20]: 85 | Plant response rating, Crabgrass, Large [5, 14]: 10 | Plant response rating, Crabgrass, Large [5, 15]: 15 | Plant response rating, Crabgrass, Large [5, 16]: 25 | Plant response rating, Crabgrass, Large [5, 17]: 35 | Plant response rating, Crabgrass, Large [5, 18]: 100 | Plant response rating, Crabgrass, Large [5, 21]: 100 | Plant response rating, Crabgrass, Large [5, 19]: 100 | Plant response rating, Crabgrass, Large [5, 20]: 100 | Plant response rating, Foxtail, Giant [6, 14]: 15 | Plant response rating, Foxtail, Giant [6, 15]: 15 | Plant response rating, Foxtail, Giant [6, 16]: 15 | Plant response rating, Foxtail, Giant [6, 17]: 25 | Plant response rating, Foxtail, Giant [6, 18]: 98 | Plant response rating, Foxtail, Giant [6, 21]: 100 | Plant response rating, Foxtail, Giant [6, 19]: 100 | Plant response rating, Foxtail, Giant [6, 20]: 100 | Plant response rating, Kochia [7, 14]: 65 | Plant response rating, Kochia [7, 15]: 75 | Plant response rating, Kochia [7, 16]: 80 | Plant response rating, Kochia [7, 17]: 85 | Plant response rating, Kochia [7, 18]: 95 | Plant response rating, Kochia [7, 21]: 95 | Plant response rating, Kochia [7, 19]: 95 | Plant response rating, Kochia [7, 20]: 100 | Plant response rating, Soybean [8, 14]: 30 | Plant response rating, Soybean [8, 15]: 55 | Plant response rating, Soybean [8, 16]: 55 | Plant response rating, Soybean [8, 17]: 65 | Plant response rating, Soybean [8, 18]: 0 | Plant response rating, Soybean [8, 21]: 5 | Plant response rating, Soybean [8, 19]: 10 | Plant response rating, Soybean [8, 20]: 50 | Plant response rating, Chickweed ([9]; 31 g ai/ha, scale 0 to 100 (0 no effect, 100 complete control)): 30 | Plant response rating, Chickweed ([9]; 62 g ai/ha, scale 0 to 100 (0 no effect, 100 complete control)): 55 | Plant response rating, Chickweed ([9]; 125 g ai/ha, scale 0 to 100, 0 no effect, 100 complete control): 60 | Plant response rating, Chickweed ([9]; 250 g ai/ha, scale 0 to 100): 70

COCc1nn(-c2ccc(C(F)(F)F)cc2)nc1Oc1cccc(OC(F)(F)F)c1 [Compound 115, 4-(methoxymethyl)-5-[3-(trifluoromethoxy)phenoxy]-2-[4-(trifluoromethyl)phenyl]-2H-1,2,3-triazole]
pest or weed control at 125 g/ha [1, 22]: 20% | pest or weed control at 500 g/ha [1, 23]: 30% | pest or weed control at 125 g/ha [1, 24]: 30% | pest or weed control at 500 g/ha [1, 25]: 60% | pest or weed control at 125 g/ha [2, 26]: 90% | pest or weed control at 500 g/ha [2, 27]: 100% | pest or weed control at 125 g/ha [2, 28]: 0% | pest or weed control at 500 g/ha [2, 29]: 10% | pest or weed control at 125 g/ha [3, 30]: 10% | pest or weed control at 500 g/ha [3, 31]: 30% | pest or weed control at 125 g/ha [3, 32]: 0% | pest or weed control at 500 g/ha [3, 33]: 20%

FCc1nn(-c2ccc(C(F)(F)F)cc2)nc1Oc1cccc(OC(F)(F)F)c1 [Compound 116, 4-(fluoromethyl)-5-[3-(trifluoromethoxy)phenoxy]-2-[4-(trifluoromethyl)phenyl]-2H-1,2,3-triazole]
pest or weed control at 125 g/ha [1, 22]: 10% | pest or weed control at 500 g/ha [1, 23]: 20% | pest or weed control at 125 g/ha [1, 24]: 0% | pest or weed control at 500 g/ha [1, 25]: 30% | pest or weed control at 125 g/ha [2, 26]: 70% | pest or weed control at 500 g/ha [2, 27]: 100% | pest or weed control at 125 g/ha [2, 28]: 0% | pest or weed control at 500 g/ha [2, 29]: 10% | pest or weed control at 125 g/ha [3, 30]: 20% | pest or weed control at 500 g/ha [3, 31]: 50% | pest or weed control at 125 g/ha [3, 32]: 0% | pest or weed control at 500 g/ha [3, 33]: 20%

Cc1nn(-c2ccc(C(F)(F)F)cc2)nc1Oc1csc(C(F)(F)F)c1 [Compound 1, 4-methyl-2-[4-(trifluoromethyl)phenyl]-5-[[5-(trifluoromethyl)-3-thienyl]oxy]-2H-1,2,3-triazole]
pest or weed control at 125 g/ha [1, 22]: 0% | pest or weed control at 500 g/ha [1, 23]: 20% | pest or weed control at 125 g/ha ([1]; pre-emergence, Preemergence, 125 g ai/ha, 0 to 100 scale (0 no effect, 100 complete control), read-out: Plant response rating, Barnyardgrass): 20% | pest or weed control at 500 g/ha ([1]; pre-emergence, Preemergence, 500 g ai/ha, 0 to 100 scale, 0 is no effect, 100 is complete control, read-out: Plant response rating, Barnyardgrass): 50% | pest or weed control at 125 g/ha [2, 26]: 50% | pest or weed control at 500 g/ha [2, 27]: 100% | pest or weed control at 125 g/ha ([2]; pre-emergence, Preemergence, 125 g ai/ha, 0 to 100 scale (0 no effect, 100 complete control), read-out: Plant response rating, Morningglory): 0% | pest or weed control at 500 g/ha ([2]; pre-emergence, Preemergence, 500 g ai/ha, 0 to 100 scale, 0 is no effect, 100 is complete control, read-out: Plant response rating, Morningglory): 20% | pest or weed control at 125 g/ha [3, 30]: 30% | pest or weed control at 500 g/ha [3, 31]: 70% | pest or weed control at 125 g/ha ([3]; pre-emergence, Preemergence, 125 g ai/ha, 0 to 100 scale (0 no effect, 100 complete control), read-out: Plant response rating, Velvetleaf): 0% | pest or weed control at 500 g/ha ([3]; pre-emergence, Preemergence, 500 g ai/ha, 0 to 100 scale, 0 is no effect, 100 is complete control, read-out: Plant response rating, Velvetleaf): 10%

Reference: patent US9302999B2, “Substituted triazoles as herbicides” (E. I. DU PONT DE NEMOURS AND COMPANY, priority 2012, dated 2016)
